Results: ChEMBL document CHEMBL1157938, “Cytotoxicity and inhibition of DNA topoisomerase I of polyhydroxylated triterpenoids and triterpenoid glycosides” (Bioorg Med Chem Lett, 2010)
Active and inactive are the calls of the source. The rule behind the calls is not given here.

Legend:
[1] = test system: PANC-1; assay: Cytotoxicity against human PANC1 cells after 48 hrs by WST8 assay; format: functional; settings: PANC-1, 48 h
[2] = test system: HL-60; assay: Cytotoxicity against human HL60 cells after 48 hrs by WST8 assay; format: functional; settings: HL-60, 48 h
[3] = molecular target: DNA topoisomerase 2-alpha (Homo sapiens, UniProt P11388); assay: Inhibition of human DNA topoisomerase 2-mediated relaxation of supercoiled DNA by gel electrophoresis
[4] = molecular target: T1, DNA topoisomerase 1 (Homo sapiens) (UniProt P11387); assay: Inhibition of human DNA topoisomerase 1-mediated relaxation of supercoiled DNA at 450 uM
T1 sequence (whole entry): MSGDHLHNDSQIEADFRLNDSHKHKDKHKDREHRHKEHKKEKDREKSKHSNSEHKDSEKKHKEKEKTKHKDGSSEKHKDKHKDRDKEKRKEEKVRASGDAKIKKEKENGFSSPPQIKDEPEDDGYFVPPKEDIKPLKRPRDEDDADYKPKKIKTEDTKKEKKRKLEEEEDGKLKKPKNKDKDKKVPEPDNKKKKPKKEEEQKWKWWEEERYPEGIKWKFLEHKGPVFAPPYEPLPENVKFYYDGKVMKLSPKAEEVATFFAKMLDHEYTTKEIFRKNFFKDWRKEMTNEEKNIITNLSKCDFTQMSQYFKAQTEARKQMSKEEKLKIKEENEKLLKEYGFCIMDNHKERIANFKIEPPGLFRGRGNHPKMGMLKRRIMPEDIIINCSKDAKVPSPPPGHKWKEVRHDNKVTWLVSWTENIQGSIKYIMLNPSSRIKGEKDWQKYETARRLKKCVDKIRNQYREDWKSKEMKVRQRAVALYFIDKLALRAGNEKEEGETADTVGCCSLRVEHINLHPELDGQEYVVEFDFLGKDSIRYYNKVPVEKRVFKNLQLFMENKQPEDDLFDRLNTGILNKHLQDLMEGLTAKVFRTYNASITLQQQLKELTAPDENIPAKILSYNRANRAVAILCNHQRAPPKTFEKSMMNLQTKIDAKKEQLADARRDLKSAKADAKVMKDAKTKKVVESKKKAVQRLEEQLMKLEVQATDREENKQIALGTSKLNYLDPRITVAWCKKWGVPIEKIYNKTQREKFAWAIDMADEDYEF

[5] = Cytotoxicity against human MRC5 cells after 48 hrs by WST8 assay; format: cell-based
[6] = molecular target: T2, DNA topoisomerase 1 (Homo sapiens, UniProt P11387); assay: Inhibition of human DNA topoisomerase 1-mediated relaxation of supercoiled DNA by gel electrophoresis
T2 sequence (P11387 whole entry): T1 sequence (whole entry)

[7] = test system: PC-3; assay: Cytotoxicity against human PC3 cells after 48 hrs by WST8 assay; format: functional; settings: PC-3, 48 h
[8] = test system: A549; assay: Cytotoxicity against human A549 cells after 48 hrs by WST8 assay; format: functional; settings: A549, 48 h
[9] = test system: HL-60; assay: Cytotoxicity against human HL60 cells at 25 uM after 48 hrs by WST8 assay; format: functional, cell-based
[10] = test system: MRC5; assay: Cytotoxicity against human MRC5 cells at 25 uM after 48 hrs by WST8 assay; format: cell-based; settings: mrc5, 48 h
[11] = test system: PC-3; assay: Cytotoxicity against human PC3 cells at 25 uM after 48 hrs by WST8 assay; format: functional, cell-based
[12] = test system: PANC-1; assay: Cytotoxicity against human PANC1 cells at 25 uM after 48 hrs by WST8 assay; format: functional, cell-based
[13] = test system: A549; assay: Cytotoxicity against human A549 cells at 25 uM after 48 hrs by WST8 assay; format: functional, cell-based
[14] = molecular target: T1, DNA topoisomerase 1 (Homo sapiens); assay: Inhibition of human DNA topoisomerase 1-mediated relaxation of supercoiled DNA at 312 uM
[15] = molecular target: T1, DNA topoisomerase 1 (Homo sapiens); assay: Inhibition of human DNA topoisomerase 1 assessed as stabilize DNA-enzyme covalent complex
[16] = molecular target: T1, DNA topoisomerase 1 (Homo sapiens); assay: Inhibition of human DNA topoisomerase 1 assessed as intercalate into DNA at 312 uM
[17] = molecular target: T1, DNA topoisomerase 1 (Homo sapiens); assay: Inhibition of human DNA topoisomerase 1 assessed as prevention of DNA-enzyme complex formation
[18] = molecular target: T2, DNA topoisomerase 1; assay: Inhibition of human DNA topoisomerase 1 at free enzyme state
[19] = molecular target: T1, DNA topoisomerase 1 (Homo sapiens); assay: Inhibition of human DNA topoisomerase 1-mediated relaxation of supercoiled DNA at 63 to 125 uM

DNA topoisomerase 2-alpha, sequence (P11388 whole entry): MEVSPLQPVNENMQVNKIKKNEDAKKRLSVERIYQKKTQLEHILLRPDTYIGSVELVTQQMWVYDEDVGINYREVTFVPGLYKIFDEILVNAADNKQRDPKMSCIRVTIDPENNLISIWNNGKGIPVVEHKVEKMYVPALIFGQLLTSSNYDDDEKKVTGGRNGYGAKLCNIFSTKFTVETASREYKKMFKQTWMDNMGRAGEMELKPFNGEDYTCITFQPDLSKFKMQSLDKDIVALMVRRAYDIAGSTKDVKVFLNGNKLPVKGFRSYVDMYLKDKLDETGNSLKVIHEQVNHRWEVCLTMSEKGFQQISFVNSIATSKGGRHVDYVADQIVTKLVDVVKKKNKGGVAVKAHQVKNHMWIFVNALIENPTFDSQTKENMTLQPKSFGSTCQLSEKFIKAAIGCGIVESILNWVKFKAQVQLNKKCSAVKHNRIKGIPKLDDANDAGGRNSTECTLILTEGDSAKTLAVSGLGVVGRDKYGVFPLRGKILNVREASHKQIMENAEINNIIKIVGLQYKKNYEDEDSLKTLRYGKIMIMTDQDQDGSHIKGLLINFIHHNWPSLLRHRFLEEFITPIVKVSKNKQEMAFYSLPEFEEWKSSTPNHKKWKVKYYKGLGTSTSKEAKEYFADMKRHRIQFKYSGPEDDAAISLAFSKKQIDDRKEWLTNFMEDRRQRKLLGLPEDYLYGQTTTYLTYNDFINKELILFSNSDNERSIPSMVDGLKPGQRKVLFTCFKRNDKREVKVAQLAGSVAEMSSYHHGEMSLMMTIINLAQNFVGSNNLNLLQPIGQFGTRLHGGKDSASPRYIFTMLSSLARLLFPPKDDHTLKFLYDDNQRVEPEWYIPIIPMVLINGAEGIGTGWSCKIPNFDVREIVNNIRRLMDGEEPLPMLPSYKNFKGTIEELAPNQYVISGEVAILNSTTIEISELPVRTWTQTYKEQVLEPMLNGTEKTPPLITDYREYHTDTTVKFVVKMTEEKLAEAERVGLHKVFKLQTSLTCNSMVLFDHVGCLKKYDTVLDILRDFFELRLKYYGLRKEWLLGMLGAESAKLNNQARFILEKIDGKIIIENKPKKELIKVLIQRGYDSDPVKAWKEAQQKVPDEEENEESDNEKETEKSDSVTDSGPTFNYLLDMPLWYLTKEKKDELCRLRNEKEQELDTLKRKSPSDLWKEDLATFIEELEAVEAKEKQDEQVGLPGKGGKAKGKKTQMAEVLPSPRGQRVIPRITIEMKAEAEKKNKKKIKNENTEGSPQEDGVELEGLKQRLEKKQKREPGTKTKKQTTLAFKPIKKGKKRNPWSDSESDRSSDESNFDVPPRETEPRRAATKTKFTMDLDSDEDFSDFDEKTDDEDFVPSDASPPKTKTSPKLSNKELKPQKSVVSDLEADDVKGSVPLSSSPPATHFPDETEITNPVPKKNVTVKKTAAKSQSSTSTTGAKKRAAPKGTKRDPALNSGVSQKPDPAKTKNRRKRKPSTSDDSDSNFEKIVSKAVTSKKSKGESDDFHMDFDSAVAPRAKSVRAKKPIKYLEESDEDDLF

Row | IC50 [3] | inhibition [4] | IC50 [6] | inhibition [14] | inhibition [15] | Activity [16] | inhibition [17] | IC50 [18] | inhibition [19] | Structure (SMILES) | GI50 [1] | GI50 [2] | GI50 at 48 h [5] | GI50 [7] | GI50 [8] | growth inhibition (GI) [9] | growth inhibition (GI) [10] | growth inhibition (GI) [11] | growth inhibition (GI) [12] | growth inhibition (GI) [13]
1 | > 250 µM | inactive | > 250 µM | – | – | – | – | – | – | C/C=C(/C)C(=O)O[C@H]1[C@H](OC(=O)/C(C)=C\C)[C@]2(CO)[C@H](O)C[C@]3(C)C(=CC[C@@H]4[C@@]5(C)CC[C@H](O)C(C)(C)[C@@H]5CC[C@]43C)[C@@H]2CC1(C)C | 11.2 µM | 5.46 µM | 7.18 µM | 6.84 µM | 5.48 µM | – | – | – | – | –
2 | > 250 µM | Active | 111 µM | inactive | inactive | Active | Active | 23.8 µM | – | C/C=C(/C)C(=O)O[C@H]1[C@H](O)[C@]2(CO)[C@H](O)C[C@]3(C)C(=CC[C@@H]4[C@@]5(C)CC[C@H](O[C@@H]6O[C@H](C(=O)O)[C@@H](O)[C@H](O[C@@H]7O[C@@H](CO)[C@H](O)[C@H]7O)[C@H]6O[C@@H]6O[C@H](CO)[C@H](O)[C@H](O)[C@H]6O)C(C)(C)[C@@H]5CC[C@]43C)[C@@H]2CC1(C)C [AESCULIOSIDE IIC] | – | 5.75 µM | 11.2 µM | 16.3 µM | 8.67 µM | – | – | – | inactive | –
3 | > 250 µM | Active | 119 µM | inactive | inactive | Active | Active | 23.8 µM | – | C/C=C(/C)C(=O)O[C@H]1[C@H](O)[C@]2(COC(C)=O)[C@H](O)C[C@]3(C)C(=CC[C@@H]4[C@@]5(C)CC[C@H](O[C@@H]6O[C@H](C(=O)O)[C@@H](O)[C@H](O[C@@H]7O[C@@H](CO)[C@H](O)[C@H]7O)[C@H]6O[C@@H]6O[C@H](CO)[C@@H](O)[C@H](O)[C@H]6O)[C@](C)(CO)[C@@H]5CC[C@]43C)[C@@H]2CC1(C)C [AESCULIOSIDE IIIA] | 16.7 µM | 7.2 µM | 8.65 µM | 10.1 µM | 9.48 µM | – | – | – | – | –
4 | > 250 µM | Active | 160 µM | inactive | inactive | Active | Active | 23.8 µM | – | C/C=C(/C)C(=O)O[C@H]1[C@H](OC(=O)C(C)C)[C@]2(CO)[C@H](O)[C@H](O)[C@]3(C)C(=CC[C@@H]4[C@@]5(C)CC[C@H](O[C@@H]6O[C@H](C(=O)O)[C@@H](O)[C@H](O[C@@H]7O[C@@H](CO)[C@H](O)[C@H]7O)[C@H]6O[C@@H]6O[C@H](CO)[C@@H](O)[C@H](O)[C@H]6O)[C@](C)(CO)[C@@H]5CC[C@]43C)[C@@H]2CC1(C)C [AESCULIOSIDE IIIB] | – | 10.9 µM | – | 9.93 µM | 11.2 µM | – | Not Active | – | inactive | –
5 | > 250 µM | – | 48.6 µM | – | – | Active | – | – | Active | C/C=C(\C)C(=O)O[C@H]1[C@H](OC(=O)/C(C)=C/C)[C@]2(CO)[C@H](O)[C@H](O)[C@]3(C)C(=CC[C@@H]4[C@@]5(C)CC[C@H](O[C@@H]6O[C@H](C(=O)O)[C@@H](O)[C@H](O[C@@H]7O[C@@H](CO)[C@H](O)[C@H]7O)[C@H]6O[C@@H]6O[C@H](CO)[C@@H](O)[C@H](O)[C@H]6O)[C@](C)(CO)[C@@H]5CC[C@]43C)[C@@H]2CC1(C)C [AESCULIOSIDE IIID] | 21.7 µM | 15.2 µM | 9.01 µM | 14.6 µM | 23.7 µM | – | – | – | – | –
6 | > 250 µM | – | 51.8 µM | – | inactive | – | Active | 23.8 µM | Active | C/C=C(/C)C(=O)O[C@H]1[C@H](OC(=O)C(C)CC)[C@]2(CO)[C@H](O)[C@H](O)[C@]3(C)C(=CC[C@@H]4[C@@]5(C)CC[C@H](O[C@@H]6O[C@H](C(=O)O)[C@@H](O)[C@H](O[C@@H]7O[C@@H](CO)[C@H](O)[C@H]7O)[C@H]6O[C@@H]6O[C@H](CO)[C@H](O)[C@H](O)[C@H]6O)C(C)(C)[C@@H]5CC[C@]43C)[C@@H]2CC1(C)C (stereo not given in full) [AESCULIOSIDE IVA] | 17.6 µM | 7.26 µM | 4.78 µM | 9.22 µM | 9.91 µM | – | – | – | – | –

Further lines, the compound ahead of its results:

Row | Structure (SMILES) | IC50 [3] | inhibition [4] | IC50 [6] | inhibition [14] | inhibition [15] | Activity [16] | inhibition [17] | IC50 [18] | inhibition [19] | GI50 [1] | GI50 [2] | GI50 at 48 h [5] | GI50 [7] | GI50 [8] | growth inhibition (GI) [9] | growth inhibition (GI) [10] | growth inhibition (GI) [11] | growth inhibition (GI) [12] | growth inhibition (GI) [13]
7 | C/C=C(/C)C(=O)O[C@H]1[C@H](O)[C@]2(CO)[C@H](O)[C@H](O)[C@]3(C)C(=CC[C@@H]4[C@@]5(C)CC[C@H](O[C@@H]6O[C@H](C(=O)O)[C@@H](O)[C@H](O[C@@H]7O[C@@H](CO)[C@H](O)[C@H]7O)[C@H]6O[C@@H]6O[C@H](CO)[C@H](O)[C@H](O)[C@H]6O)C(C)(C)[C@@H]5CC[C@]43C)[C@@H]2CC1(C)C [AESCULIOSIDE IIA] | > 250 µM | Active | 109 µM | inactive | – | – | – | – | – | – | – | – | – | – | inactive | Not Active | inactive | inactive | inactive
8 | C/C=C(\C)C(=O)O[C@H]1[C@H](OC(=O)C(C)CC)[C@]2(CO)[C@H](O)[C@H](O)[C@]3(C)C(=CC[C@@H]4[C@@]5(C)CC[C@H](O[C@@H]6O[C@H](C(=O)O)[C@@H](O)[C@H](O[C@@H]7O[C@@H](CO)[C@H](O)[C@H]7O)[C@H]6O[C@@H]6O[C@H](CO)[C@H](O)[C@H](O)[C@H]6O)C(C)(C)[C@@H]5CC[C@]43C)[C@@H]2CC1(C)C (stereo not given in full) [AESCULIOSIDE IIIC] | > 250 µM | Active | 132 µM | – | – | Active | – | – | – | 18.5 µM | 13.6 µM | – | 12.5 µM | 17.6 µM | – | Not Active | – | – | –
9 | C/C=C(/C)C(=O)O[C@H]1[C@H](OC(=O)/C(C)=C/C)C(C)(C)C[C@H]2C3=CC[C@@H]4[C@@]5(C)CC[C@H](O[C@@H]6O[C@H](C(=O)O)[C@@H](O)[C@H](O[C@@H]7O[C@@H](CO)[C@H](O)[C@H]7O)[C@H]6O[C@@H]6O[C@H](CO)[C@@H](O)[C@H](O)[C@H]6O)[C@](C)(CO)[C@@H]5CC[C@@]4(C)[C@]3(C)[C@@H](O)[C@@H](O)[C@]21CO [AESCULIOSIDE IIIE] | > 250 µM | – | 45.1 µM | – | – | Active | – | – | Active | 21.4 µM | 14 µM | 21.5 µM | 12.8 µM | 21.3 µM | – | – | – | – | –
10 | C/C=C(/C)C(=O)O[C@H]1[C@H](OC(=O)C(C)CC)[C@]2(CO)[C@H](O)C[C@]3(C)C(=CC[C@@H]4[C@@]5(C)CC[C@H](O[C@@H]6O[C@H](C(=O)O)[C@@H](O)[C@H](O[C@@H]7O[C@@H](CO)[C@H](O)[C@H]7O)[C@H]6O[C@@H]6O[C@H](CO)[C@H](O)[C@H](O)[C@H]6O)C(C)(C)[C@@H]5CC[C@]43C)[C@@H]2CC1(C)C (stereo not given in full) [AESCULIOSIDE IVC] | > 250 µM | – | 49.7 µM | – | inactive | – | Active | 23.8 µM | Active | 15.6 µM | 8.02 µM | 4.34 µM | 7.7 µM | 10.2 µM | – | – | – | – | –
